Reference: PMC8646019, “Azvudine is a thymus-homing anti-SARS-CoV-2 drug effective in treating COVID-19 patients” (Signal Transduction and Targeted Therapy, 2021)
Where “and” joins values, the source holds several entries; their conditions need not be identical. Equal values may be shown once. Entries after “also recorded” stand apart in the source; their conditions may differ.

How the values were obtained:
SARS-CoV-2 [1] = assay: Multi-color immunofluorescence staining and tissue cytometry (Tissue FAXS) of infected rhesus macaque tissues; type: in vivo, rhesus macaques
From the text: To further verify the antiviral effect of FNC in the thymus, viral S-protein in the thymus was detected with immune staining. […] Tissue ACE2 was stained red, and viral S-protein was stained green. More green signals were detected in the thymus of the untreated monkey than in the FNC-treated one. Viral S-protein was quantitatively measured in the thymus with the Tissue FAXS platform and Tissue Quest software (Tissue Gnostics).[10],[26]–[30] […] The results of all eight monkeys are shown in Supplementary Fig. 10. […] Further evaluation of thymus cells undergoing programmed death was done with TUNEL staining, followed by quantitation with Tissue FAXS platform and Tissue Quest software (Tissue Gnostics, described in Methods). As shown in Supplementary Fig. 11, the number of apoptotic thymus cells from the untreated virus (+) monkeys was much higher than that from the FNC-treated ones.
Fig. 5 FNC-protected thymus from the damage by SARS-CoV-2 infection. By the end of the experiment, the RM monkeys have practiced euthanasia, and the thymus samples were collected. a The representative images of the multi-color immunofluorescent staining were for ACE2 (red) and S protein (green) in the thymus of the RM monkeys that were inoculated with SARS-CoV-2 and treated or untreated with FNC. The regions of interest (ROI) are boxed in white, and their magnified photos are shown in the middle, with a decomposition diagram on the right. […] The regions of interest (ROI) are boxed in white, and their magnified photos are shown below. Data are presented as mean ± SEM (n = 4), *p < 0.05, FNC-treated group vs. untreated group, by Mann–Whitney U test TEXT PRINTED IN THE PICTURE: (b) FNC: ACE2 Mean Intensity / ACE2 Area (um2): 26.43%; S-protein Mean Intensity / S protein Area (um2): 9.83% DOUBTS OF THE COPYIST ABOUT THIS PICTURE: Panel b prints no group label. […] They are left out because an untreated control is not a substance. / The percentages in panel b have no printed measure. The axis titles of each plot were used as the measure.
Tyramide Signal Amplification (TSA)^3 method was used for single staining of IL-4, IL-10, IL13, RORγt and tunnel; double staining of CD3 and CD20, ACE2 and S-protein; as well as triple staining of CD3, CD4 and CD8; ACE2, S-protein and N-protein. In brief, for each marker, the samples were treated with rabbit primary antibody and then incubated with HRP-conjugated goat anti-rabbit secondary antibody. After washing, slides were incubated with fluorescent reagent then heated with microwave oven to remove the combined antibodies. The antibodies were in Table S5.
As described by Kaneko and colleagues,^4 microscopy-based multi color tissue cytometry was applied for quantitative analysis. In brief, images of the tissue specimens were acquired through the Tissue FAXS platform (Tissue Gnostics).^5,6 The area of the detected tissue was acquired as a digital gray scale image in four channels with filter settings for FITC, Cy3, Cy5 and DAPI. Cells of each phenotype were identified and quantitated, relative to the positive controls.

SARS-CoV-2 [2] = assay: Clinical trial of FNC on compassionate use in COVID-19 patients
PBMC = type: in vivo, rhesus macaques; details: n = 4 for each group, with time, vs untreated
thymus cells = type: in vivo, rhesus macaques
viral replication = details: FNC compound itself, not phosphorylated; cited from earlier work
[3] = FNC-treated monkeys, n = 4, Tissue FAXS
[4] = drug combination no: FNC only, N = 15
[5] = drug combination no: FNC only, N = 15, mean ± SD
[6] = drug combination yes: FNC plus TCM or/and other antivirals, N = 16, mean ± SD
[7] = individual COVID-19 patient (one per table line)
[8] = moderate COVID-19, n = 26, mean ± SD
[9] = severe COVID-19, n = 5, mean ± SD
[10] = FNC-treated monkey #17368, scRNA-seq

[N-]=[N+]=N[C@]1(CO)O[C@@H](n2ccc(N)nc2=O)[C@@H](F)[C@@H]1O [FNC, 2′-deoxy-2′-β-fluoro-4′-azidocytidine]
viral S- and N-protein signal in the lung (immune staining) (SARS-CoV-2 [1]; FNC-treated monkeys vs untreated): noticeably reduced
S-protein-positive cells in thymus, proportion (SARS-CoV-2 [1]; [3]): 8.36 ± 4.84%
absolute numbers of ACE2+ cells in thymus (SARS-CoV-2 [1]; [3]): 38,929 ± 19,470 cells
number of S-protein-positive cells in thymus (SARS-CoV-2 [1]; [3]): 8941 ± 5436 cells
relative proportion of ACE2+ cells in thymus (SARS-CoV-2 [1]; [3]): 35.96 ± 16.90%
Recovery rate (SARS-CoV-2 [2]; all 31 COVID-19 patients): 100% (31/31)
Time from FNC treatment to SARS-CoV-2 negative conversion, median (SARS-CoV-2 [2]; all 31 COVID-19 patients): 3.0 days
Time from FNC treatment to SARS-CoV-2 negative conversion, range (SARS-CoV-2 [2]; all 31 COVID-19 patients): 1 to 9 days
Time from FNC treatment to discharge from the hospital, average (SARS-CoV-2 [2]; all 31 COVID-19 patients): 9.00 ± 4.93 days and 9.00 days
Time from FNC treatment to discharge from the hospital, median (SARS-CoV-2 [2]; all 31 COVID-19 patients): 9.0 days
Time from FNC treatment to discharge from the hospital, range (SARS-CoV-2 [2]; all 31 COVID-19 patients): 2 to 25 days
deaths in the trial (SARS-CoV-2 [2]; all 31 COVID-19 patients): No patients died
hospital discharge rate (SARS-CoV-2 [2]; all 31 COVID-19 patients): 100%
viral ribonucleic acid negative conversion, share of patients (SARS-CoV-2 [2]; all 31 COVID-19 patients): 100%
Time from FNC treatment to SARS-CoV-2 negative conversion, average (SARS-CoV-2 [2]; all 31 COVID-19 patients, oral FNC 5 mg qd): 3.29 ± 2.22 days and 3.29 days
Recovery rate (SARS-CoV-2 [2]; [4]): 100% (16/16)
Side effect (SARS-CoV-2 [2]; [4]): 13.3% (2/15)
Time from FNC treatment to SARS-CoV-2 negative conversion (SARS-CoV-2 [2]; [5]): 2.13 ± 1.30 days
Time from FNC treatment to discharge from the hospital (SARS-CoV-2 [2]; [5]): 8.67 ± 6.24 days
Recovery rate (SARS-CoV-2 [2]; drug combination yes, N = 16): 100% (16/16)
Side effect (SARS-CoV-2 [2]; drug combination yes, N = 16): 18.8% (3/16)
Time from FNC treatment to SARS-CoV-2 negative conversion (SARS-CoV-2 [2]; [6]): 4.38 ± 2.39 days
Time from FNC treatment to discharge from the hospital (SARS-CoV-2 [2]; [6]): 9.31 ± 3.46 days
Side effect (SARS-CoV-2 [2]; [7]): Dizziness (fist day); also recorded: Low counts of Platelet and Fibrinogen (first day); also recorded: Dizziness, Nausea, Vomit (first day); also recorded: Dizziness, Insomnia, Vomit (first day)
Time from FNC treatment to discharge from the hospital (SARS-CoV-2 [2]; [7]): 6 days and 7 days and 5 days
Time from FNC treatment to SARS-CoV-2 negative conversion (SARS-CoV-2 [2]; individual COVID-19 patient (one per table line; dosage and combination treatment as in the line)): 6 days
Recovery rate (SARS-CoV-2 [2]; moderate COVID-19, n = 26): 100% (26/26)
Time from FNC treatment to SARS-CoV-2 negative conversion (SARS-CoV-2 [2]; [8]): 3.35 ± 2.13 days
Time from FNC treatment to discharge from the hospital (SARS-CoV-2 [2]; [8]): 9.65 ± 4.91 days
Recovery rate (SARS-CoV-2 [2]; self-controlled comparison, 11 patients): 100% (11/11)
Time from drug treatment to SARS-CoV-2 negative conversion (SARS-CoV-2 [2]; self-controlled comparison, 11 patients first treated with known antivirals, then FNC alone, mean ± SD): 1.73 ± 0.79 days
Time from FNC treatment to discharge from the hospital (SARS-CoV-2 [2]; self-controlled comparison, 11 patients, mean ± SD): 9.09 ± 7.27 days
Recovery rate (SARS-CoV-2 [2]; severe COVID-19, n = 5): 100% (5/5)
Side effect (SARS-CoV-2 [2]; severe COVID-19, n = 5): 40% (2/5)
Time from FNC treatment to SARS-CoV-2 negative conversion (SARS-CoV-2 [2]; [9]): 3.00 ± 2.92 days
Time from FNC treatment to discharge from the hospital (SARS-CoV-2 [2]; [9]): 5.60 ± 3.78 days
percentage of CD3+, CD4+, and CD8+ cells in the peripheral blood (PBMC): increased
Proportion of B cells in thymus (thymus cells; [10]): 4.1%
Proportion of CD4 cells in thymus (thymus cells; [10]): 17.5%
Proportion of CD8 cells in thymus (thymus cells; [10]): 22.8%
Proportion of NKT cells in thymus (thymus cells; [10]): 4.6%
expression of IL-4, IL-13, and IL-10 in the thymus cells (thymus cells; FNC-treated monkey #17368 vs untreated #17041): elevated
inhibiting viral replication in vitro (viral replication): almost inactive
